Reference: patent US20130253048A1, “Pharmaceutical Composition for Promoting Osteogenesis Containing Axial-equatorial Aryl-oriented Furofuran-type Lignan, and Pharmaceutical Preparation, Functional Food Product, and Health Food Product Comprising Composition” (ERINA CO., INC., priority 2010, published 2013)

Key:
[1] = Cell viability, MTT test in MC3T3-E1; assay type: cell-based; conditions: mouse, MC3T3-E1 cells (osteoblast-like cell line), MC3T3-E1, negative control = 100
Protocol: MC3T3-E1 cells ((IAA) the Institution of Physical and Chemical Research), osteoblast-like cell line derived from the mouse fetus cranial bone cells, were inoculated into the 96 well plate at 4,000 cells/well. As a medium, the basal medium prepared in the Example 3 supplemented with fargesin at 2 to 80 μM was used. Pre-culture was performed by using the basal medium only under the conditions of 5% CO2 and 37 degree centigrade for 3 days. After that, the conditioned medium was changed to fresh medium with fargesin; the culture was performed under the conditions of 5% CO2 and 37 degree centigrade for 3 days. On the day 4 from the culture start, the conditioned medium was changed to the fresh medium; the culture was further performed under the conditions of 5% CO2 and 37 degree centigrade for 3 days. After the termination of the culture, the following MTT test, measurement of ALP activities, and the staining were performed.
Cell viability was measured by using MTT test. MTT reagent was prepared by dissolving 50 mg of 3-(4,5-dimethyl-thiazol-2-yl)-2,5-diphenyl tetrazolium bromide in 10 ml of PBS (−). After the termination of the culture, the medium containing fargesin was partially removed from each well to adjust the solution volume to 100 μL. Ten μl of the MTT reagent was then added to each well to be reacted to give blue-violet color in the CO2 incubator.
After the termination of the reaction, all medium was removed from each well, 100 μl of DMSO as a lysis solution was added to each well, and then the absorbance was measured at 570 nm to study the viability of live cells.

[2] = test system: ovariectomized mouse (type I osteoporosis model animal); test: Change of bone mass in type I osteoporosis model animal (ovariectomized mice, dosing 3 months, femur pQCT); assay type: in vivo; conditions: for Bone density Cancellous bone, relative value / Bone density whole bone, relative value / Cortical bone Bone density, relative value / Cortical bone Bone thickness, relative value / Cortical bone adventitia diameter, relative value / Cortical bone lining membrane diameter, relative value / Polar axis bone strength, relative value (Table 3): Sham group = 100; for Polar axis strength (polar coordinates strength): SSI from pQCT; for Bone density Cancellous bone / Bone density whole bone: right femur, pQCT
Excerpt: Female Slc: ddy mice of 4 weeks old (Japan SLC, Inc.) was operated with ovariectomy to use as a type I osteoporosis model animal. Also, in order to delete the affection by invasion, a group which is operated without ovariectomy (Sham operation) is set (Sham group). These were the […] model animals.
Animal bedding were changed twice a week and always to use all fresh one, CRF-1 (Oriental Yeast Co., Ltd.) is fed as feed and deionized water as drinking water were freely given. Their body weights were weighed twice a week by the end of the experiment.
Fargesin was dissolved in 30 mL of a solution (it is referred to as “TD solution”, hereinbelow) containing 4% dimethyl sulfoxide (it is referred to as “DMSO”, hereinbelow) and 4% TWEEN 80 (both were purchased from Wako Pure Chemical Industries, Ltd.) so as that a dosage amount of fargesin becomes 20 mg/kg body wt/day, or […].
After the surgical operation, the mice were adapted to the circumstances for 5 days, and then they were divided to the Sham group, the negative control, the positive control group, and the test substance administration group (6 mice per group). The ovariectomized mice were used for the negative control group, the positive control group, and the test substance administration group.
Fargesin solution was daily administrated to the ovariectomized mice in the test group at the dosage of 20 mg/kg body wt/day (it is referred to as “F20 group”, hereinbelow) or 100 mg/kg body wt/day (it is referred to as “F100 group”, hereinbelow) for 3 month p.o.
In order to study effects of fargesin on the bone, the femur, the largest long bone, was used.
The mice in each group were killed by the cervical dislocation under diethyl ether anesthesia. Their right femurs were excised with muscles, and the muscles were removed from the femur after the excision. Lengths of the excised bones from the mice in the groups were measured, and they were dipped in 70% ethanol to be fixed.
In FIG. 3, the bone was shown schematically. The long bone (tubular bone) was composed of two thick and rounded ends (epiphysis), and thin and long part between them (a shaft). The bone extends to longitudinal direction, depending on the growth of a plate-shape epiphyseal cartilage (a growth plate) between the epiphysis and the shaft. The region of 1 mm proximal side from the A position for a measurement was set to that from 1 mm proximal region (epiphysis) from the distal growth plate as decided as the measurement region.
The bone density was measured by using the peripheral quantitative computed tomography (pQCT, XCT Research SA+, Stratec Medizintechnik GmbH, Merk Ltd) (FIG. 3B). The measurement was performed under the conditions: a diameter of 90 mm, a voxel size of 0.12 mm, a CT speed of 10 mm/sec, and a block number of 1. Bone mineral content (mg/mm), bone density (mg/cm^3), and cross section of the bone (mm^2) of the entire of tomographic images (whole bone area) were calculated.
Next, the area of the cancellous bone was extracted (peel mode 20), and then the bone mineral amount (mg/mm), the section of the bone (mm^2), and the bone density (mg/cm^3) were calculated. Further to the cortical bone, the bone mineral amount (mg/mm), the bone density (mg/cm^3), the section of the bone (mm^2), a bone thickness (mm), the periosteum perimeter of the cortical bone (mm), and the endosteum perimeter of the cortical bone (mm) were calculated.
Based on the bone diameter and the bone density measured by the pQCT, SSI was calculated. SSI is composed of Polar SSI (torsion strength in polar coordination), X-axis SSI (strength in X axis, three-point bending strength), and Y-axis SSI (Y axis strength, three-point lateral bending strength), and it is expressed by the following general equation.
Wherein, Z is the coefficient of the cross section (mm^3), CBD is the bone density of the cortical bone (mg/cm^3), and ND is the physiological bone density (1200 mg/cm^3). The coefficient Z is shown as the following equation.

[3] = F20 group: 20 mg/kg body wt/day p.o.
[4] = F100 group: 100 mg/kg body wt/day p.o.
[5] = OVX mice, F20 group: 20 mg/kg body wt/day p.o., 3 months
[6] = OVX mice, F100 group: 100 mg/kg body wt/day p.o., 3 months

COc1ccc([C@@H]2OC[C@H]3[C@@H]2CO[C@@H]3c2ccc3c(c2)OCO3)cc1OC [fargesin, Fargesin]
viability at 6 days, 2 µM ([1]; 2 μM): 106 ± 3.2% | viability at 6 days, 6 µM ([1]; 6 μM): 105 ± 3.3% | viability at 6 days, 20 µM ([1]; 20 μM): 100 ± 3.4% | viability at 6 days, 60 µM ([1]; 60 μM): 89.1 ± 3.9% | viability at 6 days, 80 µM ([1]; 80 μM): 92.6 ± 3.7% | Bone density Cancellous bone, relative value [2, 3]: 123.0 | Bone density whole bone, relative value [2, 3]: 100.8 | Cortical bone Bone density, relative value [2, 3]: (97.4) | Cortical bone Bone thickness, relative value [2, 3]: (91.1) | Cortical bone adventitia diameter, relative value [2, 3]: (105.3) | Cortical bone lining membrane diameter, relative value [2, 3]: (110.8) | Polar axis bone strength, relative value (Table 3) [2, 3]: 104.2 | Bone density Cancellous bone, relative value [2, 4]: 131.3 | Bone density whole bone, relative value [2, 4]: 102.2 | Cortical bone Bone density, relative value [2, 4]: (95.6) | Cortical bone Bone thickness, relative value [2, 4]: (102.5) | Cortical bone adventitia diameter, relative value [2, 4]: (104.2) | Cortical bone lining membrane diameter, relative value [2, 4]: (104.9) | Polar axis bone strength, relative value (Table 3) [2, 4]: 71.6 | Cortical bone Bone density [2, 5]: 859.483 ± 2.479 mg/mL | Cortical bone Bone thickness [2, 5]: 0.329 ± 0.026 mm | Cortical bone adventitia diameter [2, 5]: 8.4160 ± 0.116 mm | Cortical bone lining membrane diameter [2, 5]: 6.347 ± 0.160 mm | Polar axis bone strength (Table 3) [2, 5]: 2.005 ± 0.154 mm^3 | bone mineral mass, cancellous bone [2, 5]: 0.855±0.067 mg/mm | bone mineral mass, cortical bone [2, 5]: 2.087±0.160 mg/mm | bone mineral mass, whole bone [2, 5]: 3.638±0.164 mg/mm | cross section area of the bone, cortical bone [2, 5]: 2.427±0.185 mm^2 | cross section area of the bone, whole bone [2, 5]: 5.643±0.152 mm^2 | Polar axis strength (polar coordinates strength) [2, 5]: 1.615±0.090 mm^3 | Bone density Cancellous bone [2, 5]: 431.283 ± 30.506 mg/mL | Bone density whole bone [2, 5]: 644.367 ± 20.387 mg/mL | Cortical bone Bone density [2, 6]: 843.55 ± 8.714 mg/mL | Cortical bone Bone thickness [2, 6]: 0.370 ± 0.051 mm | Cortical bone adventitia diameter [2, 6]: 8.3300 ± 0.278 mm | Cortical bone lining membrane diameter [2, 6]: 6.010 ± 0.313 mm | Polar axis bone strength (Table 3) [2, 6]: 1.265 ± 0.147 mm^3 | bone cross section, whole bone [2, 6]: 5.550±0.351 mm^2 | bone mineral mass, cancellous bone [2, 6]: 0.920±0.102 mg/mm | bone mineral mass, cortical bone [2, 6]: 2.240±0.320 mg/mm | bone mineral mass, whole bone [2, 6]: 3.660±0.326 mg/mm | cross section area of the bone, cortical bone [2, 6]: 2.640±0.361 mm^2 | Polar axis strength (polar coordinates strength) [2, 6]: 1.666±0.087 mm^3 | Bone density Cancellous bone [2, 6]: 460.500 ± 36.222 mg/mL | Bone density whole bone [2, 6]: 653.300 ± 29.083 mg/mL
